Like-named read-outs stand apart in the source and are kept apart here.
Tests used:
PC-3 = test: SRB 48 h growth assay, Prostate PC-3; type: cell-based, human; conditions: PC-3, Prostate
SNB-75 = test: SRB 48 h growth assay, CNS SNB-75; type: cell-based, human; conditions: SNB-75, CNS
NCI-H226 = test: SRB 48 h growth assay, Non-small Cell Lung NCI-H226; type: cell-based, human
RPMI-8226 = test: SRB 48 h growth assay, Leukemia RPMI-8226; type: cell-based, human; conditions: RPMI-8226, Leukemia
K-562 = test: SRB 48 h growth assay, Leukemia K-562; type: cell-based, human
[1] = tested on: six CNS cancer cell line (SF-268, SF-295, SF-539, SNB-19, SNB-75 and U251); test: in vitro anticancer activity, CNS panel; type: cell-based; conditions: Homo sapiens; six CNS cancer cell lines, exposure at least 48 h; read-out: GI50, range over panel
SW-620 = test: SRB 48 h growth assay, Colon SW-620; type: cell-based, human; conditions: SW-620, Colon
MDA-MB-468 = test: SRB 48 h growth assay, Breast MDA-MB-468; type: cell-based, human; conditions: MDA-MB-468, Breast
BT-549 = test: SRB 48 h growth assay, Breast BT-549; type: cell-based, human; conditions: BT-549, Breast
MDA-MB-231/ATCC = test: SRB 48 h growth assay, Breast MDA-MB-231/ATCC; type: cell-based, human
MCF7 = test: SRB 48 h growth assay, Breast MCF7; type: cell-based, human
DU-145 = test: SRB 48 h growth assay, Prostate DU-145; type: cell-based, human; conditions: DU-145, Prostate
[2] = in vitro anticancer activity, melanoma panel; type: cell-based; conditions: Homo sapiens; nine melanoma cell lines, exposure at least 48 h; read-out: GI50, range over panel
M14 = test: SRB 48 h growth assay, Melanoma M14; type: cell-based, human
[3] = tested on: seven colon cancer cell line (COLO 205, HCC-2998, HCT-116, HCT-15, HT29, KM12 and SW-620); test: in vitro anticancer activity, colon panel; type: cell-based; conditions: Homo sapiens; seven colon cancer cell lines, exposure at least 48 h; read-out: GI50, range over panel
NCI-H522 = test: SRB 48 h growth assay, Non-small Cell Lung NCI-H522; type: cell-based, human
HL-60(TB) = test: SRB 48 h growth assay, Leukemia HL-60(TB); type: cell-based, human
UACC-62 = test: SRB 48 h growth assay, Melanoma UACC-62; type: cell-based, human; conditions: UACC-62, Melanoma
SK-OV-3 = test: SRB 48 h growth assay, Ovarian SK-OV-3; type: cell-based, human; conditions: SK-OV-3, Ovarian
MDA-MB-435 = test: SRB 48 h growth assay, Melanoma MDA-MB-435; type: cell-based, human; conditions: MDA-MB-435, Melanoma
A549/ATCC = test: SRB 48 h growth assay, Non-small Cell Lung A549/ATCC; type: cell-based, human
SK-MEL-5 = test: SRB 48 h growth assay, Melanoma SK-MEL-5; type: cell-based, human; conditions: SK-MEL-5, Melanoma
[4] = tested on: six leukemia cancer cell lines (CCRF-CEM, HL-60, K-562, MOLT-4, SR and RPMI-8226); test: in vitro anticancer activity, leukemia panel; type: cell-based; conditions: Homo sapiens, exposure at least 48 h, read-out: GI50, range over panel
TK-10 = test: SRB 48 h growth assay, Renal TK-10; type: cell-based, human; conditions: TK-10, Renal
LOX IMVI = test: SRB 48 h growth assay, Melanoma LOX IMVI; type: cell-based, human
ACHN = test: SRB 48 h growth assay, Renal ACHN; type: cell-based, human
[5] = Homo sapiens, read-out: Growth Inhibition GI50
[6] = Homo sapiens, read-out: Log10 GI50 (converted)
[7] = Homo sapiens, read-out: Log10 LC50 (converted)

C#Cc1ccc(-n2c(/C=C/c3ccc(C(F)(F)F)cc3)nc3ncccc3c2=O)cc1 [4c, (E)-3-(4-Ethynylphenyl)-2-(4-(trifluoromethyl)styryl)pyrido[2,3-d]pyrimidin-4(3H)-one]
GI50 (PC-3; [5]): 1960 nM | GI50 (PC-3; [6]): 1950 nM | CC50 (PC-3; [7]): > 100000 nM | Log10 TGI50 (PC-3): −5.20 | GI50 (SNB-75; [5]): 1810 nM | GI50 (SNB-75; [6]): 1820 nM | CC50 (SNB-75; [7]): 28200 nM | Log10 TGI50 (SNB-75): −5.14 | Log10 TGI50 (NCI-H226): −5.39 | GI50 (NCI-H226; [5]): 1990 nM | GI50 (NCI-H226; [6]): 2000 nM | LC50 (NCI-H226; [7]): 8510 nM | GI50 (RPMI-8226; [5]): 1390 nM | GI50 (RPMI-8226; [6]): 1380 nM | CC50 (RPMI-8226; [7]): > 100000 nM | Log10 TGI50 (RPMI-8226): −5.20 | GI50 (K-562; Homo sapiens, K562, K-562, Leukemia, read-out: Growth Inhibition GI50): 2960 nM | GI50 (K-562; Homo sapiens, K562, K-562, Leukemia, read-out: Log10 GI50 (converted)): 2950 nM | CC50 (K-562; Homo sapiens, K562, K-562, Leukemia, read-out: Log10 LC50 (converted)): > 100000 nM | Log10 TGI50 (K-562; K-562, Leukemia): −5.06 | GI50 [1]: 2600 to 3690 nM | GI50 (SW-620; [5]): 1920 nM | GI50 (SW-620; [6]): 1910 nM | CC50 (SW-620; [7]): 7410 nM | Log10 TGI50 (SW-620): −5.42 | GI50 (MDA-MB-468; [5]): 1510 nM | GI50 (MDA-MB-468; [6]): 1510 nM | CC50 (MDA-MB-468; [7]): 8710 nM | Log10 TGI50 (MDA-MB-468): −5.44 | Log10 TGI50 (BT-549): −5.47 | GI50 (BT-549; [5]): 1710 nM | GI50 (BT-549; [6]): 1700 nM | CC50 (BT-549; [7]): 6610 nM | Log10 TGI50 (MDA-MB-231/ATCC): −5.26 | GI50 (MDA-MB-231/ATCC; [5]): 2050 nM | GI50 (MDA-MB-231/ATCC; [6]): 2040 nM | CC50 (MDA-MB-231/ATCC; [7]): 60300 nM | Log10 TGI50 (MCF7): −4.99 | GI50 (MCF7; [5]): 2490 nM | GI50 (MCF7; [6]): 2510 nM | CC50 (MCF7; [7]): > 100000 nM | Log10 TGI50 (DU-145): −4.92 | GI50 (DU-145; [5]): 3760 nM | GI50 (DU-145; [6]): 3720 nM | CC50 (DU-145; [7]): 38900 nM | GI50 [2]: 510 to 4970 nM | Log10 TGI50 (M14): −5.37 | GI50 (M14; [5]): 2070 nM | GI50 (M14; [6]): 2090 nM | CC50 (M14; [7]): 8710 nM | GI50 [3]: 2060 to 3260 nM | Log10 TGI50 (NCI-H522): −5.51 | GI50 (NCI-H522; [5]): 1650 nM | GI50 (NCI-H522; [6]): 1660 nM | CC50 (NCI-H522; [7]): 5750 nM | Log10 TGI50 (HL-60(TB)): −5.22 | GI50 (HL-60(TB); [5]): 2070 nM | GI50 (HL-60(TB); [6]): 2090 nM | CC50 (HL-60(TB); [7]): > 100000 nM | GI50 (UACC-62; [5]): 1620 nM | GI50 (UACC-62; [6]): 1620 nM | CC50 (UACC-62; [7]): 7940 nM | Log10 TGI50 (UACC-62): −5.44 | GI50 (SK-OV-3; [5]): 3610 nM | GI50 (SK-OV-3; [6]): 3630 nM | CC50 (SK-OV-3; [7]): 53700 nM | Log10 TGI50 (SK-OV-3): −4.87 | GI50 (MDA-MB-435; [5]): 2270 nM | GI50 (MDA-MB-435; [6]): 2290 nM | CC50 (MDA-MB-435; [7]): > 100000 nM | Log10 TGI50 (MDA-MB-435): −5.19 | Log10 TGI50 (A549/ATCC): −5.34 | GI50 (A549/ATCC; [5]): 1830 nM | GI50 (A549/ATCC; [6]): 1820 nM | CC50 (A549/ATCC; [7]): > 100000 nM | GI50 (SK-MEL-5; [5]): 1490 nM | GI50 (SK-MEL-5; [6]): 1480 nM | CC50 (SK-MEL-5; [7]): 5500 nM | Log10 TGI50 (SK-MEL-5): −5.54 | GI50 [4]: 450 to 2430 nM | GI50 (TK-10; [5]): 2190 nM | GI50 (TK-10; [6]): 2190 nM | CC50 (TK-10; [7]): 6310 nM | Log10 TGI50 (TK-10): −5.43 | Log10 TGI50 (LOX IMVI): −5.37 | GI50 (LOX IMVI; [5]): 1890 nM | GI50 (LOX IMVI; [6]): 1910 nM | CC50 (LOX IMVI; [7]): 9770 nM | Log10 TGI50 (ACHN): −5.49 | GI50 (ACHN; [5]): 1710 nM | GI50 (ACHN; [6]): 1700 nM | CC50 (ACHN; [7]): 6170 nM
